According to patent publication US20140178305A1, “IDENTIFICATION AND USE OF ANXIOLYTIC COMPOUNDS” (CALIFORNIA INSTITUTE OF TECHNOLOGY, priority 2012, published 2014):

Assays:
MRGPRB4+ fibres = test: Two-photon in vivo calcium imaging (GCaMP3.0) of central afferent fibres through a spinal cord laminectomy, chemical stimuli; set-up: species or system mouse
Experimental: (§1) Mice expressing reporters and/or Cre recombinase targeted to the MrgprB4 locus were generated by homologous recombination in embryonic stem cells, according to standard procedures. Heterozygous neonates from MrgprD-Cre and MrgprB4-Cre mice were injected intraperitoneally with Cre-dependent AAV8 viruses expressing GCaMP3.0 or mGCaMP3.0 or hM3(Gq-coupled) DREADD, and imaged as adults (≧8 weeks old).
(§2) Electrophysiology experiments on ex vivo skin-nerve preparations from adult heterozygous Mrgprb4-EGFPf reporter mice were performed as described in Woodbury, et al. J. Comp. Neurol. 436, 304-323 (2001). For calcium imaging, after a dorsal laminectomy the spinal column was stabilized and filled with imaging solution (see below for details). Imaging was performed using a two-photon laser-scanning microscope (Ultima, Prairie Inc.) using an Olympus 40×0.8 N.A. water immersion objective, at 128×128 pixel resolution with an acquisition rate of 8-12 frames per second. Mechanical stimuli were delivered using a custom-modified No. 5 sable paint brush or serrated forceps, in a manner electronically time-stamped to image acquisition, as may be seen in FIGS. 18A-18C and further discussed below. Stimuli were delivered to each mouse in a series of trials, separated by a few minutes; each trial consisted of one or more stimuli delivered typically at intervals of several seconds. Chemical stimuli were delivered to the spinal cord using a Pipetman pipette and to the periphery using a syringe pump. Calcium responses were analysed using custom software written in Matlab (see below for more details). For calculating ΔF/F [(Fav−F0)/F0], F0 is the average of the first ten frames of the recording period.
(§3) Mice 2 months or older were sedated by i.p. injection of a mix of ketamine (100 mg/kg), xylazine (15 mg/kg), acepromazine (2.5 mg/kg in 0.9% NaCl). During surgery, body temperature was maintained at 37° C. with a heating blanket.
(§4) A dorsal laminectomy was performed mostly at spinal level L2-L4 (but occasionally at L1-L3) as described in Johannssen, et al. J. Physiol. (Lond.) 588:3397-3402 (2010), but without removing the dura. The spinal column was stabilized using Narishige STS-A spinal clamps. In addition a head-holding adaptor from Kopf (923-B Mouse Gas Anaesthesia Head Holder) was used that has installed an anaesthesia/gas mask for positioning the mouse head. In this apparatus the gas is applied through a standard hose barb positioned above the nose on the mask. The inlet fills a large gas chamber around the snout, a second hose barb below the mask is provided for vacuuming off excess, expelled gasses. The animals were maintained under continuous anaesthesia for the duration of the imaging experiments with 1-2% isofluorane or with hourly injections of the above ketamine mix. A well was built around the exposed spinal cord using Gelseal (Amersham Biosciences Corp) and Kwik Sil Adhesive (WPI). Warm imaging solution (in mM: 130 NaCl, 3 KCl, 2.5 CaCl2, 0.6 6H2O.MgCl2, 10 HEPES without Na, 1.2 NaHCO3, 10 glucose, pH7.45 with NaOH) (37° C.) was repeatedly applied to prevent drying and maintain tissue integrity, and to allow the use of immersion objectives. During imaging the body temperature of the animals was maintained at 37° C. with a heating blanket and an air-therm heater (WPI) placed inside the microscope area.
(§5) Imaging experiments were performed under a two-photon laser-scanning microscope (Ultima, Prairie Instruments Inc.). Live images were acquired at 8-12 frames per second, at depths below the pia ranging from 100 to 250 μm, using an Olympus 40×0.8 N.A. water immersion objective, at 128×128 pixel resolution with a laser tuned to 940 nm wavelength, and emission filters 525/50 nm and 595/50 nm for green and red fluorescence, respectively. Laser power was adjusted to be 20-25 mW at the focal plane (maximally 35 mW), depending on the imaging depth and level of expression of GCaMP3.0. […]

MRGPRD+ fibres = test: as above; set-up: species or system mouse
Experimental: as §1, §2, §3, §4, §5

[1] = tested on: MRGPRB4+ neurons engineered to express TRPV1; test: Calcium imaging after peripheral injection of capsaicin in MrgprB4-Cre; Rosa26-loxP-STOP-loxP-TrpV1 mice; format: in vivo, mouse; details: adult MrgprB4-Cre, peripheral injection (10 μl of 1 mM)
Experimental: α,β-methyl ATP (10 μl from 1 mM solution) and capsaicin (10 μl from 1 mM solution (10% DMSO in saline)) was injected in the ventral and dorsal hindpaw of MrgprD and MrgprB4 mice, respectively, using a syringe pump (WPI, Inc., sp200i syringe pump). The timing of the injection was controlled by the two-photon image acquisition system and associated software (Prairie View and Trigger Sync, Prairie Technologies) to link it with image acquisition.
In the case of chemical stimulation (delivered either to the spinal cord or to the periphery), typically a single trial was performed for a given mouse, due to the difficulty of maintaining the same focal plane during the period of application of the chemical to the spinal cord or the period required for diffusion of the liquid bolus delivered for peripheral injection, respectively. In these cases, therefore, the MPI ΔF/Fpeak before and during the stimulation period were calculated for multiple mice imaged using ROIs of similar size, and were compared for statistical significance (relative to pre-stimulus baseline) by repeated measures ANOVA, followed by Bonferroni-corrected post-hoc comparison of means (unless stated otherwise). The ΔF/F values in FIGS. 11B and 11E were corrected for photobleaching as described in Berry, et al. Neuron 74:530-542 (2012). […]

[2] = direct application to the spinal cord, KCl 60 mM, n=3
[3] = injection into the dorsal (hairy) skin of the hindpaw (10 μl of 1 mM), n=3
[4] = injection into the glabrous skin of the hind paw (10 μl of 1 mM), n=3
[5] = spinal application, 5 mM, mean ± range, n=2

## [Cl-].[K+] [KCl]
MRGPRB4+ fibres; KCl, same field of view as the CNO test in GCaMP3.0-only mice
  activation of fibres after application to the spinal cord (positive control): robust activation
MRGPRB4+ fibres; [2]
  mean latency to peak (MLP): 9.3 ± 4.15 s
  mean percent increase in peak ΔF/F (MPI ΔF/Fpeak): 201.6±33.2%
MRGPRD+ fibres; direct application to the spinal cord, KCl 60 mM, mean ± s.e.m., n=3
  mean percent increase in peak ΔF/F (MPI ΔF/Fpeak): 222±19%
MRGPRD+ fibres; [2]
  mean latency to peak (MLP): 8.6 ± 3.6 s

## COc1cc(CNC(=O)CCCC/C=C/C(C)C)ccc1O [capsaicin]
MRGPRB4+ fibres; control MrgprB4-Cre mice without TRPV1, peripheral injection
  calcium transients evoked by peripheral injection: no such signals were observed
[1]
  calcium transients evoked by peripheral injection: induced robust calcium transients

## Nc1ncnc2c1ncn2[C@@H]1O[C@H](COP(=O)(O)CP(=O)(O)OP(=O)(O)O)[C@@H](O)[C@H]1O [α,β Me-ATP, α,β-methylene (Me) ATP]
MRGPRB4+ fibres; [3]
  MLP: 21.9 ± 12.6 s
  MPI [ΔF/F]peak: 142±0.6%
MRGPRB4+ fibres; mice expressing GCaMP3.0 but not TRPV1 in MrgprB4+ neurons, FIG. 8F
  calcium transients evoked by peripheral injection: exhibit calcium transients
MRGPRD+ fibres; MrgD mice, FIG. 7E
  calcium response after application to the spinal cord: induced a strong calcium response
MRGPRD+ fibres; [4]
  MLP: 25.7 ± 10.5 s
  MPI [ΔF/F]peak: 137±51%
MRGPRD+ fibres; [5]
  MLP: 16.3±1.3
  MPI [ΔF/F]peak: 249±54%
